{"source": "patent US6008188A", "about": "“Cytokine potentiator and pharmaceutical formulation for cytokine administration” (Kanebo Limited, priority 1994, dated 1999)", "tested_on": "Normal human fibroblasts [CCD45SK (ATCC CRL 1506)]", "assay": "Response to βFGF: procollagenase production by normal human fibroblasts CCD45SK (Test Examples 1-3)", "type": "cell-based", "details": "for activity at 1000 µM: Homo sapiens, Fibroblast, read-out: Response to βFGF Increment; for Procollagenase Production: mean ± SD, n = 3", "description": "In the following tests, the procollagenase production was quantified in terms of the collagenase activity as obtained through activation with trypsin.\nIt is known that βFGF promotes procollagenase production. In the following tests, therefore, the βFGF activity increment as attained by the compound added was calculated from the procollagenase production, relative to the control using purified water in place of the test compound.\nNormal human fibroblasts [CCD45SK (ATCC CRL 1506) as prepared from the skin of a person] were suspended at a cell density of 1×10^5 cells/ml in the MEM medium, comprising 10% (V/V) FBS and 1% (V/V) non-essential amino acids (produced by Dai-Nippon Pharmaceutical Co.). The suspended cells were seeded into each well of a 12-well plate in an amount of 0.8 ml/well (corresponding to 8×10^4 cells/well) and incubated in a saturated aqueous vapor with 5% CO2 at 37° C. […]\nAfter having been incubated for 24 hours, the culture medium was removed from the plate by suction, and the cells remained were washed twice with an MEM medium containing 0.6% (v/v) (as final concentration) of FBS. Then, the cells were fed with 0.8 ml of the solution prepared above added to the cells, which were incubated for 2 days.\nAfter the 2 days incubation, the culture medium was removed from the plate by suction, and the cells were fed with 0.8 ml of the solution and were further incubated for 2 days. This operation was repeated once again. Thus, the cells were processed in the medium containing the cytokine activity enhancer for 6 days in total.\nAfter the above-mentioned process, the culture medium was removed from the plate by suction, and the cells were fed with 0.8 ml of an MEM medium containing 3 ng/ml of βFGF (produced by Boehringer Manheim Co.) and 0.6% (V/V) FBS, and were incubated for 3 days to obtain a culture supernatant.\n3.5 ml of 10 mM Tris-HCl buffer [adjusted at pH 7.8 at 4° C., containing 1 mM calcium chloride and 0.05% (W/V) Brij-35] was added to 500 μl of the thus-obtained culture supernatant, and applied to CM-Sepharose CL-6B (trade name, produced by Pharmacia Co., having a bed volume of 0.5 ml) as previously equilibrated with the same buffer.\nNext, the inhibitor was removed through treatment with 0.5 ml of the same buffer as above but containing 125 mM sodium chloride (4 times in all, 2 ml of the buffer was used in total), and the procollagenase was recovered through treatment with 0.5 ml of the same buffer as above but containing 500 mM sodium chloride (4 times in all, 2 ml of the buffer was used in total). This was used as a test sample.\nThe test sample was suitably diluted with a buffer for measurement (mentioned above), 25 μl of the thus-diluted sample was mixed with 25 μl of the buffer, 20 μl of a trypsin solution (as prepared by adding trypsin, Type 12 (produced by Sigma Co.) to the buffer at a concentration of 1 mg/ml) was added thereto, and this was incubated at 35° C. for 5 minutes. Then, 30 μl of a soybean trypsin inhibitor solution (as prepared at a concentration of 3 mg/ml, using the buffer) was added to this to thereby inactivate the trypsin. The resulting solution is designated collagenase solution.\nUsing type I collagen as labeled with fluorescein isothiocyanate (hereinafter referred to as FITC) (this is an acetic acid solution of FITC-collagen having a concentration of 1 mg/ml; produced by Cosmo-Bio Co.), as a substrate solution, the collagenase activity (unit/ml) of the solution was measured according to the method of Nagai et al. (see Inflammations, Vol. 4, No. 2, p. 123, 1984). […] The procollagenase production (unit/ml of culture medium) was thus obtained and referred to as X1.", "note": "Where two headings read alike, the source gives them in different places."}
{"smiles": "CN[C@@H](CO)C(=O)O", "note": "[Example 1, N-methyl-L-serine]", "values": [{"measurement": "concentration dependence of increase in procollagenase production / response to βFGF", "setting": "0.01 to 10 mM", "result": "in a concentration-dependent manner"}, {"measurement": "activity at 1000 µM", "setting": "144 h, Test Example 1, 1 mM, 6 days, 3 ng/ml βFGF, control (purified water) = 100", "result": 220, "unit": "%"}, {"measurement": "activity at 1000 µM", "setting": "Test Example 2, 0.01 mM, control = 100", "result": 100, "unit": "%"}, {"measurement": "activity at 1000 µM", "setting": "Test Example 2, 1.0 mM, control = 100", "result": 130, "unit": "%"}, {"measurement": "Procollagenase Production", "setting": "Test Example 1, 1 mM, 6 days, 3 ng/ml βFGF", "result": "15 ± 1.0", "unit": "unit/ml"}, {"measurement": "Procollagenase Production", "setting": "Test Example 2, 0.01 mM", "result": "15 ± 3.3", "unit": "unit/ml"}, {"measurement": "Procollagenase Production", "setting": "Test Example 2, 0.1 mM", "result": "17 ± 2.9", "unit": "unit/ml"}, {"measurement": "Procollagenase Production", "setting": "Test Example 2, 0.3 mM", "result": "24 ± 3.5", "unit": "unit/ml"}, {"measurement": "Procollagenase Production", "setting": "Test Example 2, 1.0 mM", "result": "19 ± 1.3", "unit": "unit/ml"}, {"measurement": "Procollagenase Production", "setting": "Test Example 2, 3.0 mM", "result": "26 ± 1.5", "unit": "unit/ml"}, {"measurement": "Procollagenase Production", "setting": "Test Example 2, 10 mM", "result": "32 ± 2.2", "unit": "unit/ml"}]}
